Drawing on PMC10341549, “Inhibitory Investigations of Acyl-CoA Derivatives against Human Lipoxygenase Isozymes” (International Journal of Molecular Sciences, 2023), this text covers IC50 for eight molecules.

The target in assay [1] is T1, h12-LOX (Homo sapiens, UniProt P18054).
T1 construct: His tag; made in house
T1 sequence (P18054 1-663): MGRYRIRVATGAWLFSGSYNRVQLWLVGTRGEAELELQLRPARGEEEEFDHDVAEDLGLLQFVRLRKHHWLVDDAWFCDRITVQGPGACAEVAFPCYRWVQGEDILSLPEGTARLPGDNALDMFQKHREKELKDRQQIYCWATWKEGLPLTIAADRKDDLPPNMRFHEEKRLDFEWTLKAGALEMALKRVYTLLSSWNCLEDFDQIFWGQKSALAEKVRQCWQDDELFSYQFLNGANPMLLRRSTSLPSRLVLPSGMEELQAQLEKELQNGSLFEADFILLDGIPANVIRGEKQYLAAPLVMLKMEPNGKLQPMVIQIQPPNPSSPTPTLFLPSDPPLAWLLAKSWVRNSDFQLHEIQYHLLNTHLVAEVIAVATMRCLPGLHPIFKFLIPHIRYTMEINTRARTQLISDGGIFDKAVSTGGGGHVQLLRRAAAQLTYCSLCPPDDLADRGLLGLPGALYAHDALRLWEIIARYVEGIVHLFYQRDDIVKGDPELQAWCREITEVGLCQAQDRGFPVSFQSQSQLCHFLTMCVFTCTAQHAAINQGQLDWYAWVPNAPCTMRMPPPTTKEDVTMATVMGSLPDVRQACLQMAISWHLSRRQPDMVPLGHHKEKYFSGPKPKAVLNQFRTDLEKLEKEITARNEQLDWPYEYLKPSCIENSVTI
Details: method as in PMID 37506345. As to conditions: 10 μM AA, 25 mM HEPES pH 8.00, 0.01% Triton X-100, 22 °C, published previously, ref [30], cited from earlier work.

In assay [2] the target is T2, h15-LOX-2 (Homo sapiens, UniProt O15296).
T2 construct: His tag; made in house
T2 sequence (O15296 1-676): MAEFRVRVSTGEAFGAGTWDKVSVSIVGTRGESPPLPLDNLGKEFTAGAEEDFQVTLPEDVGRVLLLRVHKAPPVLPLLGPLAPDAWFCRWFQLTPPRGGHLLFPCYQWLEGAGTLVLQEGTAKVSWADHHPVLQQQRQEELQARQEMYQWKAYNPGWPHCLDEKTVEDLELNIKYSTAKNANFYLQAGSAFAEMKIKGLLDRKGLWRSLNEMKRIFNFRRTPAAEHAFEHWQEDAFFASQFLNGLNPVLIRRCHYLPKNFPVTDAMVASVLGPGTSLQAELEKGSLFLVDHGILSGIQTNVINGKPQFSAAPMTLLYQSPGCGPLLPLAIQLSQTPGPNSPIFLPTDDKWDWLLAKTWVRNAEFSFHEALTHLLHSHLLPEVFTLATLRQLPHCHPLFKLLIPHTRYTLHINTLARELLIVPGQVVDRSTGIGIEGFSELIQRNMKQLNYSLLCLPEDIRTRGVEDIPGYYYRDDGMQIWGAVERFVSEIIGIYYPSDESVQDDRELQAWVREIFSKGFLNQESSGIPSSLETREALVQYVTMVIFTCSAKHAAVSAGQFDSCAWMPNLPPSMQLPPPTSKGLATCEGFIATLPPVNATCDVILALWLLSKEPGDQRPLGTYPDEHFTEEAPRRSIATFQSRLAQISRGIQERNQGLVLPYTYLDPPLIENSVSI
Briefly: IC50 determination against h15-LOX-2. As to conditions: 10 μM AA, 25 mM HEPES pH 7.5, 0.01% Triton X-100, 22 °C. It counts as biochemical. Here is the method: Overexpression and purification of his-tagged wild-type h12-LOX (Uniprot entry P18054), h15-LOX-1 (Uniprot entry P16050), and h15-LOX-2 (Uniprot entry O15296) were performed using nickel-affinity chromatography. The purity of h12-LOX, h15-LOX-1, and h15-LOX-2 was assessed using SDS gel as greater than 85%, and metal content was assessed with a Finnigan inductively coupled plasma mass spectrometer (ICP-MS, Thermo Fischer Scientific, San Jose, USA) via comparison with iron standard solution. Cobalt-EDTA was used as an internal standard. WT h5-LOX (UniProt entry P09917) was expressed in Rosetta 2 cells (Novagen) transformed with the pET14b-Stable-5-LOX plasmid (a gift from Marcia Newcomer of Louisiana State University) and grown in Terrific Broth containing 34 μg/mL chloramphenicol and 100 μg/mL ampicillin at 37 °C for 3.5 h, then placed at 20 °C for an additional 26 h. Cells were pelleted and resuspended in 50 mM Tris (pH 8.0), 500 mM NaCl, 20 mM imidazole with 1 μM pepstatin, 100 μM PMSF, and DNaseI (Sigma, Kanagawa, Japan). The cells were lysed in a French pressure cell and centrifuged at 40,000× g for 20 min at 4 °C. Saturated ammonium sulfate was added to achieve a final solution of 10% and inverted several times. The lysate was centrifuged at 40,000× g for 10 min at 4 °C. The pellet was discarded, and the supernatant was increased to a final concentration of 50% ammonium sulfate. The supernatant was rotated for 10 min at 4 °C then centrifuged at 40,000× g for 10 min at 4 °C. The pellet was split into 150 mg aliquots. The WT h5-LOX used for the kinetics in this work was not purified due to a dramatic loss in activity and was therefore prepared as an ammonium-sulfate precipitate.
IC50 values for each acyl-CoA were measured against h5-LOX, h12-LOX, h15-LOX-1, and h15-LOX-2. The reactions were carried out in 25 mM HEPES buffer (pH 8.00), 0.01% Triton X-100, and 10 μM AA for h12-LOX; 25 mM HEPES buffer (pH 7.5), 0.01% Triton X-100, and 10 μM AA for h15-LOX-1 and h15-LOX-2; and 50 mM HEPES buffer (pH 7.5), 100 µM EDTA, 50 mM NaCl, 200 µM ATP, and 10 μM AA for h5-LOX. IC50 reactions were implemented with h15-LOX-1 (0.125 μM), h12-LOX (0.300 μM), h15-LOX-2 (0.5 μM), and h5-LOX (∼600 nM ammonium sulfate salt) at 22 °C in a 1 cm^2 quartz cuvette containing 2 mL of the according buffer and 10 μM AA for no longer than 2 min to avoid any cleavage of the acyl-coenzyme A. Inhibitor concentrations ranging from 50 μM to 0.01 μM were used. All reactions were conducted using a Cary-UV Vis spectrophotometer (Agilent, Santa Clara, CA, USA). The fastest rates over 15 s intervals were recorded. IC50 values were obtained by determining the percent of inhibition of the enzymatic rate at ten inhibitor concentrations and plotting the rate against the inhibitor concentration, followed by a hyperbolic saturation curve fit. The saturation curve fits were performed in duplicate or triplicate, depending on the quality of the data. […] Through HPLC monitoring, we were able to determine a lack of degradation of the fatty acyl-CoAs over the first hour.

[3] abbreviates: listed as palmitoleoyl-CoA (16:1).

Read-outs that look alike come from different tables or passages of the source.

A word on the IC50: it is the concentration that gives 50% inhibition. With `CCCCC/C=C\C/C=C\C/C=C\C/C=C\CCCC(=O)SCCNC(=O)CCNC(=O)[C@H](O)C(C)(C)COP(=O)(O)OP(=O)(O)OC[C@H]1O[C@@H](n2cnc3c(N)ncnc32)[C@H](O)[C@@H]1OP(=O)(O)O` [Arachidonoyl-CoA (20:4), arachidonoyl-coenzyme A (20:4)], the IC50 was 110 ± 20 µM in assay [1], over 500 µM in assay [2] and over 100 µM in assay [2] (listed as arachidonoyl-CoA (20:4)).
Take `CC/C=C\C/C=C\C/C=C\C/C=C\C/C=C\C/C=C\CCC(=O)SCCNC(=O)CCNC(=O)C(O)C(C)(C)COP(=O)(O)OP(=O)(O)OC[C@H]1O[C@@H](n2cnc3c(N)ncnc32)[C@H](O)[C@@H]1OP(=O)(O)O` (stereo partly shown) [Docosahexaenoyl CoA (22:6), docosahexaenoyl-coenzyme A (22:6)]: the concentration for half-maximal inhibition (IC50) was over 500 µM in assay [1], over 200 µM in assay [1] (listed as docosahexaenoyl-CoA (22:6)) and over 500 µM in assay [2].
`CCCCCCCCCCCCCCCC(=O)SCCNC(=O)CCNC(=O)[C@H](O)C(C)(C)COP(=O)(O)OP(=O)(O)OC[C@H]1O[C@@H](n2cnc3c(N)ncnc32)[C@H](O)[C@@H]1OP(=O)(O)O` [Palmitoyl-CoA (16:0), palmitoyl-coenzyme A (16:0)]: the concentration for half-maximal inhibition (IC50) is over 200 µM in assay [1], over 200 µM in assay [2] and over 100 µM in assay [2] (listed as palmitoyl-CoA (16:0)).
Consider `CCCCCCCC/C=C\CCCCCCCC(=O)SCCNC(=O)CCNC(=O)[C@H](O)C(C)(C)COP(=O)(O)OP(=O)(O)OC[C@H]1O[C@@H](n2cnc3c(N)ncnc32)[C@H](O)[C@@H]1OP(=O)(O)O` [Oleoyl-CoA (18:1), oleoyl-coenzyme A (18:1)], for which the IC50 in assay [1] was 32 ± 4 µM; in assay [2] it was 0.62 ± 0.06 µM.
As to `CCCCC/C=C\C/C=C\CCCCCCCC(=O)SCCNC(=O)CCNC(=O)[C@H](O)C(C)(C)COP(=O)(O)OP(=O)(O)OC[C@H]1O[C@@H](n2cnc3c(N)ncnc32)[C@H](O)[C@@H]1OP(=O)(O)O` [Linoleoyl-CoA (18:2), linoleoyl-CoA], the values for the IC50 in assay [1] and in assay [2] were over 200 µM and over 100 µM, respectively.
As to `CCCCC/C=C\C/C=C\C/C=C\CCCCC(=O)SCCNC(=O)CCNC(=O)[C@H](O)C(C)(C)COP(=O)(O)OP(=O)(O)OC[C@H]1O[C@@H](n2cnc3c(N)ncnc32)[C@H](O)[C@@H]1OP(=O)(O)O` [ɣ-Linolenoyl-CoA (18:3), ɣ-linolenoyl-coenzyme A (18:3)], the IC50 in assay [1] is over 200 µM; in assay [2] it was over 500 µM; in assay [2] (listed as ɣ-linolenoyl-CoA (18:3)) it was over 100 µM.
Regarding `CCCCCC/C=C\CCCCCCCC(=O)SCCNC(=O)CCNC(=O)[C@H](O)C(C)(C)COP(=O)(O)OP(=O)(O)OC[C@H]1O[C@@H](n2cnc3c(N)ncnc32)[C@H](O)[C@@H]1OP(=O)(O)O` [Palmitoleoyl-CoA (16:1), palmitoleoyl-coenzyme A (16:1)], the IC50 in assay [1] was over 500 µM; in assay [1] (setting [3]), over 200 µM; in assay [2], over 200 µM; in assay [2] (setting [3]) it was over 100 µM.
For `CCCCCCCCCCCCCCCCCC(=O)SCCNC(=O)CCNC(=O)[C@H](O)C(C)(C)COP(=O)(O)OP(=O)(O)OC[C@H]1O[C@@H](n2cnc3c(N)ncnc32)[C@H](O)[C@@H]1OP(=O)(O)O` [Stearoyl-CoA (18:0), stearoyl-coenzyme A (18:0)], the IC50 is over 200 µM in assay [1] and 7.6 ± 1 µM in assay [2].
